Reference: patent US11649212B2, “Inhibitors of indoleamine 2,3-dioxygenase and methods of their use” (BRISTOL-MYERS SQUIBB COMPANY, priority 2017, dated 2023)

Tests used:
human IDO1 = molecular target: T1, human IDO1 (Homo sapiens, UniProt P14902); test: IDO inhibition assay in human IDO1/HEK293 cells; assay type: cell-based; conditions: HEK293 cells stably expressing human IDO1, 20 hours incubation, absorbance at 490 nm; read-out: IDO1 HEK Human IC50
T1 construct: expressed in transfected cells
Experimental: HEK293 cells were transfected with a pCDNA-based mammalian expression vector harboring human IDO1 cDNA (NM 002164.2) by electroporation. They were cultured in medium (DMEM with 10% FBS) containing 1 mg/ml G418 for two weeks. Clones of HEK293 cells that stably expressed human IDO1 protein were selected and expanded for IDO inhibition assay.
The human IDO1/HEK293 cells were seeded at 10,000 cells per 50 μL per well with RPMI/phenol red free media contains 10% FBS in a 384-well black wall clear bottom tissue culture plate (Matrix Technologies LLC) 100 nL of certain concentration of compound was then added to each well using ECHO liquid handling systems. The cells were incubated for 20 hours in 37° C. incubator with 5% CO2.
The compound treatments were stopped by adding trichloroacetic acid (Sigma-Aldrich) to a final concentration at 0.2%. The cell plate was further incubated at 50° C. for 30 minute. The equal volume supernatant (20 μL) and 0.2% (w/v) Ehrlich reagent (4-dimethylaminobenzaldehyde, Sigma-Aldrich) in glacial acetic acid were mixed in a new clear bottom 384-well plate. This plate was then incubated at room temperature for 30 minute. The absorbance at 490 nm was measured on Envision plate reader.
Compound IC50 values were calculated using the counts of 500 nM of a reference standard treatment as one hundred percent inhibition, and counts of no compound but DMSO treatment as zero percent inhibition.

[1] = molecular target: T2, Indoleamine 2,3-Dioxygenase (IDO) (Homo sapiens, UniProt P14902); test: HeLa cell-based indoleamine 2,3-dioxygenase (IDO) assay (kynurenine production); conditions: HeLa cells, IFNγ 25 ng/mL, 48 hour incubation, kynurenine absorbance at 480 nm
T2 construct: endogenous in cells; host or cells: HeLa (ATCC CCL-2), stimulated with IFNγ 25 ng/mL
Experimental: Assessment of Inhibitor Activity in HeLa Cell-Based Indoleamine 2,3-Dioxygenase (IDO) Assay:
HeLa (ATCC® CCL-2) cells were obtained from the ATCC® and cultured in Dulbecco's Modified Eagle Medium supplemented with 4.5 g/L glucose, […] (#10-013-CV, Corning), 2 mM L-alanyl-L-glutamine dipeptide (#35050-061, Gibco), 100U/mL penicillin, 100 μg/mL streptomycin (#SV30010, HyClone) and 10% fetal bovine serum (#SH30071.03 HyClone). Cells were maintained in a humidified incubator at 37° C. in 5% CO2.
IDO activity was assessed as a function of kynurenine production as follows: HeLa cells were seeded in a 96-well culture plate at a density of 5,000 cells/well and allowed to equilibrate overnight. After 24 hours, the media was aspirated and replaced with media containing IFNγ (#285-IF/CF, R&D Systems) at a final concentration of 25 ng/mL. A serial dilution of each test compound was added to the cells in a total volume of 200 μL of culture medium. After a further 48 hour incubation, 170 μL of supernatant was transferred from each well to a fresh 96-well plate. 12.1 μL of 6.1N trichloroacetic acid (#T0699, Sigma-Aldrich) was added to each well and mixed, followed by incubation at 65° C. for 20 minutes to hydrolyze N-formylkynurenine, the product of indoleamine 2,3-dioxygenase, to kynurenine. The reaction mixture was then centrifuged for 10 mins at 500×g to sediment the precipitate. 100 μL of the supernatant was transferred from each well to a fresh 96-well plate. 100 μl of 2% (w/v) p-dimethylaminobenzaldehyde (#15647-7, Sigma-Aldrich) in acetic acid (#A6283, Sigma-Aldrich) was added to each well mixed and incubated at room temperature for 20 mins. Kynurenine concentrations were determined by measuring absorbance at 480 nm and calibrating against an L-kynurenine (#K8625, Sigma-Aldrich) standard curve using a SPECTRAMAX® M2e microplate reader (Molecular Devices). The percentage activity at each inhibitor concentration was determined and IC50 values assessed using nonlinear regression.

T2 sequence (P14902 whole entry): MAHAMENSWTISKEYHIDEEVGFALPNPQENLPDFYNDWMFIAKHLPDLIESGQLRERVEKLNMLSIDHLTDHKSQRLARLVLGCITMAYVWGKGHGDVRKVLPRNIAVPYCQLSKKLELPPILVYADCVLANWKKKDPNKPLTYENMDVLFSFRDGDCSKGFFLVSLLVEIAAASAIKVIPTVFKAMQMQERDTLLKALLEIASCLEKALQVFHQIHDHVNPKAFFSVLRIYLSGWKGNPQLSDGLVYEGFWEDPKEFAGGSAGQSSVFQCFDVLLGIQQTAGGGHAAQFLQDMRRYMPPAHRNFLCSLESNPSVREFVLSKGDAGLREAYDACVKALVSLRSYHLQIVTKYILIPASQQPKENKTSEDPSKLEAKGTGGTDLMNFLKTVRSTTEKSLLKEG
T1 sequence (P14902 whole entry): as above

| SMILES | IC50 (human IDO1) [nM] | IC50 [1] [nM] |
| --- | --- | --- |
| CCCC(C(=O)NC12CC3CC(CC(C3)C1)C2)N1CCN(c2ccnc3ccc(F)cc23)CC1 (single isomer, unassigned) [Example 19] | 1800 |  |
| CCCC(C(=O)NC12CC3CC(CC(C3)C1)C2)N1CCN(c2ccnc3ccc(F)cc23)CC1 (single isomer, unassigned) [Example 20] | 1900 |  |
| CCC(C(=O)NC1[C@H]2C[C@@H]3C[C@@H](C[C@H]1C3)C2)C1CCN(Cc2cccc(C(F)(F)F)n2)CC1 (single isomer, unassigned) [Example 21, N-(Adamantan-2-yl)-2-(1-((6-(trifluoromethyl)pyridin-2-yl)methyl)piperidin-4-yl)butanamide] |  | 20 |
| CCC(C(=O)NC1[C@H]2C[C@@H]3C[C@@H](C[C@H]1C3)C2)C1CCN(Cc2cccc(C(F)(F)F)n2)CC1 (single isomer, unassigned) [Example 22, N-(Adamantan-2-yl)-2-(1-((6-(trifluoromethyl)pyridin-2-yl)methyl)piperidin-4-yl)butanamide] |  | 1000 |
| C[C@@H](NC(=O)C12CCC(Cl)(CC1)CC2)[C@H]1CC[C@@H](c2ccnc3ccc(F)cc32)CC1 [Example 1, 4-chloro-N—((R)-1-((cis)-4-(6-fluoroquinolin-4-yl)cyclohexyl)ethyl)bicyclo [2.2.2]octane-1-carboxamide] |  | 24 |
| C[C@@H](NC(=O)C1CCN(c2ccc(F)cc2)CC1)[C@H]1CC[C@@H](c2ccnc3ccc(F)cc32)CC1 [Example 2, 1-(4-Fluorophenyl)-N—((R)-1-((1s,4S)-4-(6-fluoroquinolin-4-yl)cyclohexyl)ethyl) piperidine-4-carboxamide] |  | 22 |
| COc1ccc(N2CCC(C(=O)N[C@H](C)[C@H]3CC[C@@H](c4ccnc5ccc(F)cc54)CC3)CC2)cc1 [Example 3, N—((R)-1-((1s,4S)-4-(6-Fluoroquinolin-4-yl)cyclohexyl)ethyl)-1-(4-methoxyphenyl)piperidine-4-carboxamide] | 800 |  |
| C[C@@H](NC(=O)N1CCN(c2ccccc2)CC1)[C@H]1CC[C@@H](c2ccnc3ccc(F)cc32)CC1 [Example 4, N—((R)-1-((1s,4 S)-4-(6-Fluoroquinolin-4-yl)cyclohexyl)ethyl)-4-phenylpiperazine-1-carboxamide] |  | 18 |
| C[C@@H](NC(=O)C1CCCCC1)[C@H]1CC[C@@H](c2ccnc3ccc(F)cc32)CC1 [Example 5, N-((R)-1-((1s,4S)-4-(6-fluoroquinolin-4-yl)cyclohexyl)ethyl)cyclohexanecarboxamide] |  | 11 |
| C[C@@H](NC(=O)C1CC1)[C@H]1CC[C@@H](c2ccnc3ccc(F)cc32)CC1 [Example 6, N-((R)-1-((1s,4S)-4-(6-fluoroquinolin-4-yl)cyclohexyl)ethyl)cyclopropanecarboxamide] | 810 |  |
| C[C@@H](NC(=O)C1CC(F)(F)C1)[C@H]1CC[C@@H](c2ccnc3ccc(F)cc32)CC1 [Example 7, 3,3-difluoro-N-((R)-1-((1s,4S)-4-(6-fluoroquinolin-4-yl)cyclohexyl)ethyl)cyclobutanecarboxamide] |  | 550 |
| C[C@@H](NC(=O)C1CC(F)C1)C1CCC(c2ccnc3ccc(F)cc23)CC1 (stereo partly drawn) [Example 8, (1r,3R)-3-fluoro-N-((R)-1-((1s,4S)-4-(6-fluoroquinolin-4-yl)cyclohexyl)ethyl)cyclobutanecarboxamide] | 570 |  |
| C[C@@H](NC(=O)[C@H]1C[C@@H](F)C1)[C@H]1CC[C@@H](c2ccnc3ccc(F)cc32)CC1 [Example 9, (1s,3S)-3-fluoro-N-((R)-1-((1s,4S)-4-(6-fluoroquinolin-4-yl)cyclohexyl)ethyl)cyclobutanecarboxamide] | 620 |  |
| C[C@@H](NC(=O)C1CCC1)[C@H]1CC[C@@H](c2ccnc3ccc(F)cc32)CC1 [Example 10, N-((R)-1-((1s,4S)-4-(6-fluoroquinolin-4-yl)cyclohexyl)ethyl) cyclobutanecarboxamide] | 190 |  |
| C[C@H](NC(=O)C1CCC(O)CC1)C1CCC(c2ccnc3ccc(F)cc23)CC1 (stereo partly drawn) [Example 11, (1s,4S)-N-((R)-1-((1s,4S)-4-(6-fluoroquinolin-4-yl)cyclohexyl)ethyl)-4-hydroxycyclohexane carboxamide] | 750 |  |
| C[C@@H](NC(=O)[C@H]1CC[C@H](O)CC1)[C@H]1CC[C@@H](c2ccnc3ccc(F)cc32)CC1 [Example 12, (1r,4R)-N-((R)-1-((1s,4S)-4-(6-fluoroquinolin-4-yl)cyclohexyl)ethyl)-4-hydroxycyclohexane carboxamide] | 170 |  |
| COc1ccc(CN(C(=O)NC2CCCCC2)[C@H]2CC[C@H](c3ccccc3)CC2)cc1 [Example 13, 3-cyclohexyl-1-(4-methoxybenzyl)-1-((1r,4r)-4-phenylcyclohexyl)urea] |  | 66 |
| COc1ccc(CN(C(=O)NC2CCCC2)[C@H]2CC[C@H](c3ccccc3)CC2)cc1 [Example 14, 3-cyclopentyl-1-(4-methoxybenzyl)-1-((1r,4r)-4-phenylcyclohexyl)-urea] | 120 |  |
| COc1ccc(CN(C(=O)NC2CC2)[C@H]2CC[C@H](c3ccccc3)CC2)cc1 [Example 15, 3-cyclopropyl-1-(4-methoxybenzyl)-1-((1r,4r)-4-phenylcyclohexyl)-urea] | 240 |  |
| CC1(CC(=O)NC23CC4CC(CC(C4)C2)C3)CCN(c2ccnc3ccc(F)cc23)CC1 [Example 16, N-((3s,5s,7s)-Adamantan-1-yl)-2-(1-(6-fluoroquinolin-4-yl)-4-methylpiperidin-4-yl)acetamide] |  | 31 |
| CC1(CC(=O)N[C@@]23C[C@@H]4C[C@@H](C[C@@](O)(C4)C2)C3)CCN(c2ccnc3ccc(F)cc23)CC1 [Example 17, 2-(1-(6-Fluoroquinolin-4-yl)-4-methylpiperidin-4-yl)-N-((1r,3s,5R,7S)-3-hydroxyadamantan-1-yl)acetamide] | 390 |  |
| CC1(CC(=O)NC23CC4CC(CC(C4)C2)C3)CCN(c2ccnc(C(F)(F)F)c2)CC1 [Example 18, N-((3 s,5 s, 7 s)-Adamantan-1-yl)-2-(4-methyl-1-(2-(trifluoromethyl)pyridin-4-yl)piperidin-4-yl)acetamide] | 180 |  |
| C[C@@H](C(=O)NC12CC3CC(C)(CC(C)(C3)C1)C2)[C@H]1CC[C@@H](c2ccnc3ccc(F)cc32)CC1 [Example 23, (cis)-(2R)—N-(3,5-dimethyladamantan-1-yl)-2-(4-(6-fluoroquinolin-4-yl)cyclohexyl)propanamide] |  | 14 |
